Values of other authors in US20240277615A1, “SELF-EMULSIFYING COMPOSITION, PRODUCTION METHODS AND USES THEREOF” (Universidade Da Beira Interior, priority 2021, published 2024).

plasma protein binding (plasma protein)	Log P	SMILES
94-98%	–	CCC(C)(C)C(=O)O[C@H]1C[C@@H](C)C=C2C=C[C@H](C)[C@H](CC[C@@H]3C[C@@H](O)CC(=O)O3)[C@H]21 [simvastatin]
–	7	CC(C)CCC[C@@H](C)[C@H]1CC[C@H]2[C@@H]3CC=C4C[C@@H](O)CC[C@]4(C)[C@H]3CC[C@]12C [cholesterol]
